Results: the supplement of paper PMC10307832

Legend:
Test in all cases: relative viability (nuclei count vs DMSO), 5 days (fraction); higher = more cells survive
AZD8055 + Decitabine = compound: COc1ccc(-c2ccc3c(N4CCOC[C@@H]4C)nc(N4CCOC[C@@H]4C)nc3n2)cc1CO [AZD8055] + Nc1ncn([C@H]2C[C@H](O)[C@@H](CO)O2)c(=O)n1 [Decitabine] (partner 2 µM)
How it was run: (§1)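 Nuclei were stained with Hoechst during a one-step fixation (final 0.05% Triton X-100, 1% formaldehyde, 1 ug/ml Hoechst) carried out 5 days after dosing, then counted on 4× images. The cells, lung cancer lines in 1536-well plates, had been dosed by pin tool the day after seeding with one drug alone or a fixed anchor-drug dose plus five library-drug doses (not always all listed) in √10 steps. Relative viability is the nuclei count in treated wells divided by that in vehicle wells, and each value is the median of duplicate plates.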

AZD8055 + Lapatinib = compound: COc1ccc(-c2ccc3c(N4CCOC[C@@H]4C)nc(N4CCOC[C@@H]4C)nc3n2)cc1CO [AZD8055] + CS(=O)(=O)CCNCc1ccc(-c2ccc3ncnc(Nc4ccc(OCc5cccc(F)c5)c(Cl)c4)c3c2)o1 [Lapatinib] (partner 2 µM)
How it was run: as §1

AZD8055 + Tozasertib = compound: COc1ccc(-c2ccc3c(N4CCOC[C@@H]4C)nc(N4CCOC[C@@H]4C)nc3n2)cc1CO [AZD8055] + Cc1cc(Nc2cc(N3CCN(C)CC3)nc(Sc3ccc(NC(=O)C4CC4)cc3)n2)n[nH]1 [Tozasertib] (partner 0.1 µM)
How it was run: as §1

AZD8055 + Crizotinib = compound: COc1ccc(-c2ccc3c(N4CCOC[C@@H]4C)nc(N4CCOC[C@@H]4C)nc3n2)cc1CO [AZD8055] + C[C@@H](Oc1cc(-c2cnn(C3CCNCC3)c2)cnc1N)c1c(Cl)ccc(F)c1Cl [Crizotinib] (partner 1 µM)
How it was run: as §1

Cell Line	relative viability (AZD8055 + Decitabine; first compound 0.01 µM)	relative viability (AZD8055 + Decitabine; first compound 0.03162 µM)	relative viability (AZD8055 + Decitabine; first compound 0.1 µM)	relative viability (AZD8055 + Decitabine; first compound 0.3162 µM)	relative viability (AZD8055 + Decitabine; first compound 1 µM)	relative viability (AZD8055 + Lapatinib; first compound 0.01 µM)	relative viability (AZD8055 + Lapatinib; first compound 0.03162 µM)	relative viability (AZD8055 + Lapatinib; first compound 0.1 µM)	relative viability (AZD8055 + Lapatinib; first compound 0.3162 µM)	relative viability (AZD8055 + Lapatinib; first compound 1 µM)	relative viability (AZD8055 + Tozasertib; first compound 0.01 µM)	relative viability (AZD8055 + Tozasertib; first compound 0.03162 µM)	relative viability (AZD8055 + Tozasertib; first compound 0.1 µM)	relative viability (AZD8055 + Tozasertib; first compound 0.3162 µM)	relative viability (AZD8055 + Tozasertib; first compound 1 µM)	relative viability (AZD8055 + Crizotinib; first compound 0.01 µM)	relative viability (AZD8055 + Crizotinib; first compound 0.03162 µM)	relative viability (AZD8055 + Crizotinib; first compound 0.1 µM)	relative viability (AZD8055 + Crizotinib; first compound 0.3162 µM)	relative viability (AZD8055 + Crizotinib; first compound 1 µM)
LXF-289	0.397	0.317	0.369	0.343	0.356	0.939	0.903	0.846	0.804	0.708	0.234	0.295	0.212	0.201	0.105	0.902	0.855	0.807	0.702	0.686
NCI-H23	0.252	0.287	0.262	0.225	0.262	1.15	0.804	0.792	0.369	0.35	0.486	0.311	0.248	0.24	0.235	0.562	0.507	0.41	0.295	0.265
NCI-H322M	0.71	0.601	0.617	0.555	0.588	0.536	0.551	0.51	0.5	0.466	0.458	0.45	0.408	0.347	0.326	0.868	1.03	0.825	0.796	0.478
NCI-H358	0.22	0.24	0.177	0.134	0.113	0.444	0.41	0.394	0.254	0.246	0.0893	0.121	0.102	0.0607	0.0813	0.678	0.934	0.69	0.442	0.211
NCI-H460	0.573	0.352	0.353	0.246	0.13	1.72	0.629	0.43	0.137	0.0984	0.648	0.675	0.529	0.208	0.124	1.05	0.654	0.818	0.106	0.0777
NCI-H520	0.486	0.242	0.229	0.176	0.165	0.716	0.344	0.265	0.142	0.167	0.381	0.305	0.213	0.251	0.192	0.58	0.53	0.37	0.195	0.194
NCI-H596	1.06	0.841	0.698	0.571	0.528	1	0.682	0.661	0.535	0.463	0.698	0.698	0.434	0.308	0.329	1	0.78	0.624	0.322	0.423
NCI-H647	0.35	0.271	0.198	0.195	0.126	1.15	0.565	0.478	0.192	0.207	0.319	0.27	0.28	0.143	0.088	1	0.619	0.445	0.303	0.177
NCI-H650	0.35	0.278	0.333	0.29	0.275	0.838	0.73	0.58	0.341	0.319	0.817	0.711	0.601	0.381	0.333	0.763	0.712	0.626	0.395	0.292
NCI-H661	0.502	0.482	0.449	0.359	0.331	0.434	0.43	0.414	0.307	0.256	0.329	0.376	0.376	0.356	0.359	1.06	1.1	1.07	0.634	0.567
NCI-H727	0.875	0.85	0.736	0.498	0.616	0.807	0.818	0.685	0.378	0.308	0.849	0.77	0.499	0.414	0.487	0.994	0.896	0.536	0.292	0.279
NCI-H838	0.513	0.343	0.305	0.278	0.296	1.04	0.656	0.352	0.237	0.336	0.293	0.27	0.248	0.184	0.204	0.969	0.745	0.476	0.293	0.307
NCI-H1355	0.395	0.335	0.321	0.248	0.231	0.866	0.78	0.703	0.257	0.274	0.483	0.5	0.399	0.278	0.228	1.12	0.851	0.587	0.231	0.231
NCI-H1437	0.612	0.553	0.509	0.363	0.302	1.03	0.76	0.549	0.221	0.183	0.437	0.458	0.496	0.373	0.238	0.946	0.963	0.899	0.337	0.19
NCI-H1650	0.535	0.432	0.439	0.384	0.358	0.767	0.731	0.71	0.452	0.44	0.366	0.446	0.422	0.534	0.252	0.919	1.24	1.02	0.518	0.43
NCI-H1651	0.69	0.319	0.481	0.416	0.347	0.844	0.569	0.585	0.403	0.324	0.695	0.64	0.694	0.414	0.317	0.896	0.738	0.786	0.633	0.529

Cell Line	relative viability (AZD8055 + Decitabine; first compound 0.01 µM)	relative viability (AZD8055 + Decitabine; first compound 0.03162 µM)	relative viability (AZD8055 + Decitabine; first compound 0.1 µM)	relative viability (AZD8055 + Decitabine; first compound 0.3162 µM)	relative viability (AZD8055 + Decitabine; first compound 1 µM)	relative viability (AZD8055 + Lapatinib; first compound 0.01 µM)	relative viability (AZD8055 + Lapatinib; first compound 0.03162 µM)	relative viability (AZD8055 + Lapatinib; first compound 0.1 µM)	relative viability (AZD8055 + Lapatinib; first compound 0.3162 µM)	relative viability (AZD8055 + Lapatinib; first compound 1 µM)	relative viability (AZD8055 + Tozasertib; first compound 0.01 µM)	relative viability (AZD8055 + Tozasertib; first compound 0.03162 µM)	relative viability (AZD8055 + Tozasertib; first compound 0.1 µM)	relative viability (AZD8055 + Tozasertib; first compound 0.3162 µM)	relative viability (AZD8055 + Tozasertib; first compound 1 µM)	relative viability (AZD8055 + Crizotinib; first compound 0.01 µM)	relative viability (AZD8055 + Crizotinib; first compound 0.03162 µM)	relative viability (AZD8055 + Crizotinib; first compound 0.1 µM)	relative viability (AZD8055 + Crizotinib; first compound 0.3162 µM)	relative viability (AZD8055 + Crizotinib; first compound 1 µM)
NCI-H1666	0.744	0.685	0.627	0.702	0.685	0.587	0.488	0.488	0.355	0.362	0.623	0.862	0.589	0.523	0.51	0.936	1.01	0.812	0.648	0.465
NCI-H1734	0.551	0.344	0.433	0.299	0.234	1.17	0.789	0.57	0.308	0.242	0.234	0.26	0.23	0.194	0.196	0.734	0.587	0.472	0.256	0.282
NCI-H1755	0.714	0.636	0.691	0.506	0.461	1.07	0.815	0.935	0.565	0.457	0.551	0.555	0.449	0.429	0.437	0.824	0.762	0.652	0.397	0.393
NCI-H1915	0.272	0.251	0.258	0.254	0.244	1.1	0.876	1.01	0.655	0.522	0.533	0.433	0.46	0.387	0.35	0.922	0.822	0.901	0.642	0.422
NCI-H1944	0.429	0.349	0.402	0.319	0.226	0.766	0.655	0.615	0.367	0.336	0.243	0.253	0.206	0.171	0.166	1.09	0.918	0.973	0.427	0.343
NCI-H1975	0.458	0.371	0.312	0.238	0.237	1.04	0.601	0.468	0.273	0.251	0.804	0.619	0.375	0.189	0.178	0.943	0.959	0.515	0.386	0.254
NCI-H1993	0.49	0.488	0.49	0.444	0.386	0.685	0.766	0.75	0.668	0.672	0.55	0.534	0.518	0.47	0.526	0.819	0.688	0.59	0.588	0.609
NCI-H2009	0.376	0.451	0.376	0.305	0.268	1.15	0.74	0.919	0.396	0.316	0.763	0.735	0.723	0.535	0.279	1.01	1.05	0.832	0.831	0.273
NCI-H2023	0.243	0.161	0.175	0.129	0.118	0.971	0.611	0.361	0.148	0.132	0.314	0.325	0.258	0.115	0.109	0.521	0.507	0.339	0.119	0.119
NCI-H2085	0.576	0.512	0.379	0.456	0.426	0.899	0.514	0.384	0.334	0.341	0.775	0.759	0.703	0.388	0.338	0.927	0.805	0.639	0.359	0.315
NCI-H2087	0.28	0.182	0.236	0.153	0.113	1.01	0.932	0.826	0.581	0.435	0.276	0.242	0.2	0.189	0.162	1.21	0.972	0.801	0.415	0.485
NCI-H2126	0.623	0.499	0.485	0.434	0.331	0.653	0.679	0.615	0.453	0.425	0.844	0.829	0.687	0.427	0.375	0.997	1.02	0.926	0.617	0.494
NCI-H2170	0.537	0.363	0.456	0.252	0.218	0.242	0.231	0.229	0.231	0.228	0.794	0.732	0.485	0.349	0.239	1.2	1.07	0.641	0.394	0.376
NCI-H2347	0.625	0.533	0.533	0.495	0.374	0.89	0.825	0.823	0.498	0.408	0.543	0.515	0.519	0.305	0.252	0.601	0.509	0.402	0.332	0.531
NCI-H2405	0.79	0.715	0.593	0.363	0.339	1.03	0.955	0.858	0.395	0.292	0.812	0.815	0.676	0.448	0.344	0.804	0.815	0.681	0.516	0.311
NCI-H3122	0.442	0.341	0.3	0.149	0.129	1.09	1.14	1.04	0.79	0.589	0.465	0.375	0.315	0.178	0.132	0.248	0.238	0.183	0.174	0.171
